Laboratory results reported in article PMC5387716, “Discovery of monocarbonyl curcumin-BTP hybrids as STAT3 inhibitors for drug-sensitive and drug-resistant breast cancer therapy” (Scientific Reports, 2017).
Where two headings read alike, the source gives them in different places.

Legend:
MCF-7/DOX cells = assay: MTT anti-proliferative assay, MCF-7/DOX; assay type: cell-based, human; details: for IC50: MTT, 48 h, read-out: MCF-7/DOX IC50 ± SD
Experimental: (§1) All cell lines were purchased from Cell Bank of Shanghai Institute of Biochemistry and Cell Biology, Chinese Academy of Sciences (Shanghai, China). Human breast carcinoma cells (MCF-7 and MCF-7/DOX), breast epithelial cells (MCF-10A) and normal human liver cells (LO2) were maintained in RPMI-1640 medium. All cells were supplemented with 12% fetal bovine serum containing 50 μg/ml penicillin and 50 μg/ml streptomycin. Cells were grown to 80% confluency in a tissue culture flask at 37 °C in a humidified atmosphere containing 5% CO2, and then were trypsinized with 1 × Trypsin-Versene and split. The MCF-7/DOX cell line we used was established from its parental cell line MCF-7 cell by gradually increasing the concentration of DOX to which the cells were exposed in a stepwise manner over a period of 8 months. […] The cells were incubated in drug-free medium for at least 1 week before use.
(§2) Cells (MCF-7, MCF-7/DOX, MCF-10A, LO2) were seeded in 96-well plates at a density of 3,000–6,000 cells per well. The cells were incubated overnight (16 h) in a humidified 5% CO2 incubator at 37 °C. After media removal, different concentrations of test compounds were added in triplicate to the plates in 200 μL of fresh media and were incubated with the cells at 37 °C for 48 h. […] Cell viability was evaluated using 3-(4, 5-dimethylthiazolyl)-2,5-diphenyltetrazoliumbromide (MTT). The absorbance was read by an ELISA reader (SpectraMax Plus384, Molecular Devices, Sunnyvale, CA) at a test wavelength of 570 nm and a reference wavelength of 630 nm. Cell viability was calculated using the following formula: […]

MCF-7 cells = assay: MTT anti-proliferative assay, MCF-7; assay type: cell-based, human; details: read-out: MCF-7 IC50 ± SD
Experimental: as §1, §2

MCF-10A cells = assay: MTT anti-proliferative assay, MCF-10A; assay type: cell-based, human; details: Homo sapiens, MCF-10A, 48 h, normal breast epithelial cells, Table 2 prints no unit, μM
Experimental: as §1, §2

LO2 cells = assay: MTT anti-proliferative assay, LO2; assay type: cell-based; details: Homo sapiens, L02, 48 h, normal human liver cells, Table 2 prints no unit, μM
Experimental: as §1, §2

IC50 (MCF-7/DOX cells; Homo sapiens, MCF7-DOX)	melting point	IC50 (MCF-7 cells; Homo sapiens, MCF7, 48 h)	IC50 (MCF-7/DOX cells)	IC50 (MCF-7 cells; 48 h)	Molecule	IC50 (MCF-10A cells)	resistance to DOX compared with parental DOX-sensitive cells (MCF-7/DOX cells; MCF-7/DOX vs MCF-7)	IC50 (LO2 cells)
4420 ± 170 nM	97 to 99 °C	1480 ± 190 nM	–	–	O=C(/C=C/c1ccccn1)N1CCN(C(=O)C2=Cc3ccc(Br)cc3S2(=O)=O)CC1 [Compound 6q, (E)-1-(4-(6-bromo-1,1-dioxidobenzo[b]thiophene-2-carbonyl)piperazin-1-yl)-3-(pyridin-2-yl)prop-2-en-1-one]	–	–	–
–	–	–	2140 ± 270 nM	1450 ± 170 nM	(E)-1-(4-(5-bromo-1,1-dioxidobenzo[b]thiophene-2-carbonyl)piperazin-1-yl)-3-(4-fluorophenyl)prop-2-en-1-one [Compound 6v]	–	–	–
64700 ± 3800 nM	–	980 ± 80 nM	–	–	COc1cccc2c1C(=O)c1c(O)c3c(c(O)c1C2=O)C[C@@](O)(C(=O)CO)C[C@@H]3O[C@H]1C[C@H](N)[C@H](O)[C@H](C)O1 [DOX, doxorubicin, reference compound]	0.98 ± 0.17 µM	66.02 fold	0.82 ± 0.12 µM
2230 ± 160 nM	225 to 227 °C	1600 ± 90 nM	–	–	O=C(/C=C/c1ccc(Cl)cc1)N1CCN(C(=O)C2=Cc3ccc(Br)cc3S2(=O)=O)CC1 [Compound 6s, (E)-1-(4-(6-bromo-1,1-dioxidobenzo[b]thiophene-2-carbonyl)piperazin-1-yl)-3-(4-chlorophenyl)prop-2-en-1-one]	–	–	–
2610 ± 820 nM	215 to 217 °C	1600 ± 130 nM	–	–	O=C(/C=C/c1ccc(Br)cc1)N1CCN(C(=O)C2=Cc3ccc(Br)cc3S2(=O)=O)CC1 [Compound 6r, (E)-1-(4-(6-bromo-1,1-dioxidobenzo[b]thiophene-2-carbonyl)piperazin-1-yl)-3-(4-bromophenyl)prop-2-en-1-one]	–	–	–
9490 ± 2800 nM	112 to 114 °C	2900 ± 360 nM	–	–	COc1cc(/C=C/C(=O)N2CCN(C(=O)C3=Cc4ccc(Br)cc4S3(=O)=O)CC2)cc(OC)c1O [Compound 6o, (E)-1-(4-(6-bromo-1,1-dioxidobenzo[b]thiophene-2-carbonyl)piperazin-1-yl)-3-(4-hydroxy-3,5-dimethoxyphenyl)prop-2-en-1-one]	–	–	–
3780 ± 140 nM	> 250 °C	4000 ± 910 nM	–	–	O=C(/C=C/c1ccccc1O)N1CCN(C(=O)C2=Cc3ccc(Br)cc3S2(=O)=O)CC1 [Compound 6p, (E)-1-(4-(6-bromo-1,1-dioxidobenzo[b]thiophene-2-carbonyl)piperazin-1-yl)-3-(2-hydroxy)prop-2-en-1-one]	–	–	–
–	–	–	2020 ± 340 nM	3030 ± 220 nM	(E)-1-(4-(6-bromo-1,1-dioxidobenzo[b]thiophene-2-carbonyl)piperazin-1-yl)-3-(3-hydroxy-4-methoxyphenyl)prop-2-en-1-one [Compound 6t]	–	–	–
–	–	–	1000 ± 760 nM	860 ± 90 nM	(E)-1-(4-(5-bromo-1,1-dioxidobenzo[b]thiophene-2-carbonyl)piperazin-1-yl)-3-(4-hydroxy-3-methoxyphenyl)prop-2-en-1-one [Compound 6j]	–	–	–
–	–	–	550 ± 10 nM	1440 ± 110 nM	(E)-1-(4-(6-bromo-1,1-dioxidobenzo[b]thiophene-2-carbonyl)piperazin-1-yl)-3-(4-hydroxy-3-methoxyphenyl)prop-2-en-1-one [Compound 6u]	–	–	–

The remaining lines, values behind:

Molecule	IC50 (MCF-7/DOX cells; Homo sapiens, MCF7-DOX)	melting point	IC50 (MCF-7 cells; Homo sapiens, MCF7, 48 h)	IC50 (MCF-7/DOX cells)	IC50 (MCF-7 cells; 48 h)	IC50 (MCF-10A cells)	resistance to DOX compared with parental DOX-sensitive cells (MCF-7/DOX cells; MCF-7/DOX vs MCF-7)	IC50 (LO2 cells)
COc1ccc(/C=C/C(=O)N2CCN(C(=O)C3=Cc4cc(Br)ccc4S3(=O)=O)CC2)cc1OC [Compound 6a, (E)-1-(4-(5-bromo-1,1-dioxidobenzo[b]thiophene-2-carbonyl)piperazin-1-yl)-3-(3,4-dimethoxyphenyl)prop-2-en-1-one]	1820 ± 190 nM	244 to 246 °C	710 ± 140 nM	–	–	–	–	–
COc1ccc(/C=C/C(=O)N2CCN(C(=O)C3=Cc4ccc(Br)cc4S3(=O)=O)CC2)cc1 [Compound 6m, (E)-1-(4-(6-bromo-1,1-dioxidobenzo[b]thiophene-2-carbonyl)piperazin-1-yl)-3-(4-methoxyphenyl)prop-2-en-1-one]	380 ± 10 nM	220 to 222 °C	990 ± 70 nM	–	–	–	–	–
COc1ccc(/C=C/C(=O)N2CCN(C(=O)C3=Cc4ccc(Br)cc4S3(=O)=O)CC2)cc1OC [Compound 6l, (E)-1-(4-(6-bromo-1,1-dioxidobenzo[b]thiophene-2-carbonyl)piperazin-1-yl)-3-(3,4-dimethoxyphenyl)prop-2-en-1-one]	1770 ± 120 nM	222 to 224 °C	1250 ± 140 nM	–	–	–	–	–
O=C(/C=C/c1ccc(Cl)cc1)N1CCN(C(=O)C2=Cc3cc(Br)ccc3S2(=O)=O)CC1 [Compound 6h, (E)-1-(4-(5-bromo-1,1-dioxidobenzo[b]thiophene-2-carbonyl)piperazin-1-yl)-3-(4-chlorophenyl)prop-2-en-1-one]	720 ± 130 nM	225 to 227 °C	2020 ± 200 nM	–	–	–	–	–
O=C(/C=C/c1ccc(C(F)(F)F)cc1)N1CCN(C(=O)C2=Cc3cc(Br)ccc3S2(=O)=O)CC1 [Compound 6i, (E)-1-(4-(5-bromo-1,1-dioxidobenzo[b]thiophene-2-carbonyl)piperazin-1-yl)-3-(4-(trifluoromethyl)phenyl)prop-2-en-1-one]	870 ± 120 nM	245 to 247 °C	670 ± 140 nM	–	–	–	–	–
COc1cc(/C=C/C(=O)N2CCN(C(=O)C3=Cc4cc(Br)ccc4S3(=O)=O)CC2)cc(OC)c1O [Compound 6d, (E)-1-(4-(5-bromo-1,1-dioxidobenzo[b]thiophene-2-carbonyl)piperazin-1-yl)-3-(4-hydroxy-3,5-dimethoxyphenyl)prop-2-en-1-one]	2270 ± 600 nM	125 to 127 °C	2250 ± 350 nM	–	–	–	–	–
COc1cc(/C=C/C(=O)N2CCN(C(=O)C3=Cc4cc(Br)ccc4S3(=O)=O)CC2)cc(OC)c1OC [Compound 6c, (E)-1-(4-(5-bromo-1,1-dioxidobenzo[b]thiophene-2-carbonyl)piperazin-1-yl)-3-(3,4,5-trimethoxyphenyl)prop-2-en-1-one]	860 ± 130 nM	94 to 96 °C	1230 ± 80 nM	–	–	–	–	–
O=C(/C=C/c1ccc(F)cc1)N1CCN(C(=O)C2=Cc3cc(Br)ccc3S2(=O)=O)CC1 [Compound 6k, (E)-1-(4-(5-bromo-1,1-dioxidobenzo[b]thiophene-2-carbonyl)piperazin-1-yl)-3-(4-fluorophenyl)prop-2-en-1-one]	2440 ± 570 nM	> 250 °C	1500 ± 180 nM	–	–	–	–	–
O=C(/C=C/c1ccc(Br)cc1)N1CCN(C(=O)C2=Cc3cc(Br)ccc3S2(=O)=O)CC1 [Compound 6g, (E)-1-(4-(5-bromo-1,1-dioxidobenzo[b]thiophene-2-carbonyl)piperazin-1-yl)-3-(4-bromophenyl)prop-2-en-1-one]	1180 ± 70 nM	> 250 °C	2080 ± 60 nM	–	–	–	–	–
O=C(/C=C/c1ccccn1)N1CCN(C(=O)C2=Cc3cc(Br)ccc3S2(=O)=O)CC1 [Compound 6f, (E)-1-(4-(5-bromo-1,1-dioxidobenzo[b]thiophene-2-carbonyl)piperazin-1-yl)-3-(pyridin-2-yl)prop-2-en-1-one]	1890 ± 270 nM	241 to 242 °C	1080 ± 60 nM	–	–	–	–	–
O=C(/C=C/c1ccc([N+](=O)[O-])cc1)N1CCN(C(=O)C2=Cc3cc(Br)ccc3S2(=O)=O)CC1 [Compound 6e, (E)-1-(4-(5-bromo-1,1-dioxidobenzo[b]thiophene-2-carbonyl)piperazin-1-yl)-3-(4-nitrophenyl)prop-2-en-1-one]	1080 ± 140 nM	> 250 °C	1180 ± 80 nM	–	–	–	–	–
COc1cc(/C=C/C(=O)N2CCN(C(=O)C3=Cc4ccc(Br)cc4S3(=O)=O)CC2)cc(OC)c1OC [Compound 6n, (E)-1-(4-(6-bromo-1,1-dioxidobenzo[b]thiophene-2-carbonyl)piperazin-1-yl)-3-(3,4,5-trimethoxyphenyl)prop-2-en-1-one]	2880 ± 570 nM	81 to 85 °C	2620 ± 130 nM	–	–	–	–	–
